According to patent publication US20070087974A1, “TREATMENT OR PREVENTION OF RESPIRATORY VIRAL INFECTIONS WITH IMMUNOMODULATOR COMPOUNDS” (SCICLONE PHARMACEUTICALS, INC., priority 2004, published 2007):
Where two headings read alike, the source gives them in different places. Marks after values point to notes of the source that are not given here.

System: Influenza virus A—A/Achi/1/68 (H3N2)
Format: in vivo, outbred CFW female mice
[1] = 10.0 mg/kg per os for 5 days, […]

Compound: N[C@H](CCC(=O)N[C@@H](Cc1c[nH]c2ccccc12)C(=O)O)C(=O)O [SCV-07, γ-D-glutamyl-L-tryptophan]
- # of mice survived (0.1 mg/kg per os for 5 days, […]): 0
- # of mice survived (1.0 mg/kg per os for 5 days, […]): 0
- Median survival (days) (1.0 mg/kg per os for 5 days, […], p = 0.025 compared to PBS-treated group by Log Rank test): 9.0* days
- # of mice survived [1]: 0
- Median survival [1]: 6.0 days
- Median survival (mouse, in vivo): 7.0 days
